The source of these data is patent US12122761B2, “2-azaspiro[3.4]octane derivatives as M4 agonists” (NOVARTIS AG, priority 2019, dated 2024).

The assay concerns the target T1, Cloned human M1 receptor (CHRM1) stably expressed in HEK293 cells (Homo sapiens, UniProt P11229).
T1 construct: expressed in transfected cells; host or cells: HEK293
T1 sequence (P11229 1-460): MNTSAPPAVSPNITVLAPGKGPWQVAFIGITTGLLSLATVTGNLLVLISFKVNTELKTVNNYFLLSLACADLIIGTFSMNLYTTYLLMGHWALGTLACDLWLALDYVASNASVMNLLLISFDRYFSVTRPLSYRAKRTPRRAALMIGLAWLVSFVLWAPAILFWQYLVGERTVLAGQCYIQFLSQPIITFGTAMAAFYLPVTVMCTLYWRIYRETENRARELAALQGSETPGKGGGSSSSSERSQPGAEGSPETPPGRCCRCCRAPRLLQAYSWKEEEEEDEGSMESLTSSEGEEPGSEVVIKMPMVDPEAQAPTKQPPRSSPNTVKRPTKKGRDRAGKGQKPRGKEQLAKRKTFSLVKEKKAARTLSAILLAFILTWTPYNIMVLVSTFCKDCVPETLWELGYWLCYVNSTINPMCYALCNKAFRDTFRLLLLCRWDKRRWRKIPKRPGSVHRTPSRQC
As to the kind of experiment: CHRM1 Ca++ Flux Assay (agonist mode, FDSS 7000EX). The assay is classed as cell-based. The following applies: for M1 FDSS PA: Percent Activity; for EC50: geometric mean if tested more than once. The protocol:
The above examples were characterized by measuring the intracellular mobilization of Ca++ ions caused by signaling events mediated by the receptor. The Intra-cellular Calcium flux levels were captured by the highly sensitive Ca++ indicator, Calcium Assay Kit (BD Biosciences, Catalog Number 640178). The fluorescent activity from all receptors were monitored by the fluorescent imager, FDSS 7000EX (Hamamatsu) over a span of 3 minutes.
Cloned human M1 receptor (CHRM1) was stably expressed in HEK293 cells and were grown and maintained in a monolayer culture with DMEM/High Glucose (Life Technologies) supplemented with 10% Fetal Bovine Serum, 1× Pen-Strep, and 0.5 mg/mL Geneticin in a humidified atmosphere (5% CO2) at 37° C. The cultures were grown to 90% confluency in T150 flasks (Corning) and washed with 1×DPBS and lifted with 0.05% Trypsin (Life Technologies). The cells were then spun (1K rpm, 3 minutes) and frozen using Recovery Cell Culture Freezing Media (Gibco Technologies). Cells were stored in liquid nitrogen and thawed a day before the assay.
Prior to the day of the assay, stable HEK293 M1 cells were thawed and plated on 384 well black walled clear bottom TC treated plates (Greiner Cat #781091) at 25K cells/well with DMEM/High Glucose supplemented with 10% FBS (Hyclone) Pen-Strep (Life Technologies) and kept overnight in a humidified atmosphere (5% CO2) at 37° C. The following day, cells were loaded with 20 uL Ca^++ dye (BD Biosciences) using Loading Buffer (HBSS +Ca/+Mg, 20 mM HEPES) and placed back in cell incubator for a minimum of 1 hour. The dye was replaced with 45 μL Assay Buffer (HBSS −Ca/−Mg, 20 mM HEPES) and kept at room temperature prior to running on cell imager. Compounds were prepared in Assay Buffer and 5 uL was added to the cells. The FDSS 7000EX (Hamamatsu) was used to acquire Ca++ traces for 3 minutes from cells treated with 11 point dose in triplicate in order to generate dose response curves in agonist mode. All compounds were serially diluted in DMSO then prepared in Assay Buffer for Ca^++ flux studies. The dose response curves were generated from the average of triplicate wells obtained from each data point and used a non-linear regression of four parameter dose response algorithm. The Percent Activity (PA) was measured to EC100 of Carbachol.

For the compound `Cc1noc(C)c1COc1ccccc1C1CCN([C@@H]2CCC3(C2)CN(C(=O)C2(F)CC2)C3)CC1` (single isomer, unassigned) [Example 7U, (R)-(6-(4-(2-((3,5-dimethylisoxazol-4-yl)methoxy)phenyl)piperidin-1-yl)-2-azaspiro[3.4]octan-2-yl)(1-fluorocyclopropyl)methanone or (S)-(6-(4-(2-((3,5-dimethylisoxazol-4-yl)methoxy)phenyl)piperidin-1-yl)-2-azaspiro[3.4]octan-2-yl)(1-fluorocyclopropyl)methanone], the “M1 FDSS PA” value amounted to 0% and the EC50 is above 25000 nM.

For `Cc1ncc(COc2ccccc2C2CCN([C@@H]3CCC4(C3)CN(C(=O)C3(F)CC3)C4)CC2)o1` (single isomer, unassigned) [Example 7V, (R)-(1-fluorocyclopropyl)(6-(4-(2-((2-methyloxazol-5-yl)methoxy)phenyl)piperidin-1-yl)-2-azaspiro[3.4]octan-2-yl)methanone or (S)-(1-fluorocyclopropyl)(6-(4-(2-((2-methyloxazol-5-yl)methoxy)phenyl)piperidin-1-yl)-2-azaspiro[3.4]octan-2-yl)methanone], the “M1 FDSS PA” value is reported as 18% and a half-maximal effect (EC50) was put at 2300 nM.

Take `Cc1nnc(COc2ccccc2C2CCN([C@@H]3CCC4(C3)CN(C(=O)C3(F)CC3)C4)CC2)o1` (single isomer, unassigned) [Example 7W, (R)-(1-fluorocyclopropyl)(6-(4-(2-((5-methyl-1,3,4-oxadiazol-2-yl)methoxy)phenyl)piperidin-1-yl)-2-azaspiro[3.4]octan-2-yl)methanone or (S)-(1-fluorocyclopropyl)(6-(4-(2-((5-methyl-1,3,4-oxadiazol-2-yl)methoxy)phenyl)piperidin-1-yl)-2-azaspiro[3.4]octan-2-yl)methanone]: the “M1 FDSS PA” value came out at 80% and the EC50 worked out at 2 nM.

Regarding `Cc1nc(COc2ccccc2C2CCN([C@@H]3CCC4(C3)CN(C(=O)C3(F)CC3)C4)CC2)no1` (single isomer, unassigned) [Example 7X, (R)-(1-fluorocyclopropyl)(6-(4-(2-((5-methyl-1,2,4-oxadiazol-3-yl)methoxy)phenyl)piperidin-1-yl)-2-azaspiro[3.4]octan-2-yl)methanone or (S)-(1-fluorocyclopropyl)(6-(4-(2-((5-methyl-1,2,4-oxadiazol-3-yl)methoxy)phenyl)piperidin-1-yl)-2-azaspiro[3.4]octan-2-yl)methanone], the “M1 FDSS PA” value is 86% and the EC50 came out at 3 nM.

As for `Cc1nnc(COc2ccccc2C2CCN([C@@H]3CCC4(C3)CN(C(=O)C3(F)CC3)C4)CC2)o1` (single isomer, unassigned) [Example 7Y, (R)-(1-fluorocyclopropyl)(6-(4-(2-((5-methyl-1,3,4-oxadiazol-2-yl)methoxy)phenyl)piperidin-1-yl)-2-azaspiro[3.4]octan-2-yl)methanone or (S)-(1-fluorocyclopropyl)(6-(4-(2-((5-methyl-1,3,4-oxadiazol-2-yl)methoxy)phenyl)piperidin-1-yl)-2-azaspiro[3.4]octan-2-yl)methanone], the “M1 FDSS PA” value is 67% and the EC50 amounted to 246 nM.

With `Cc1nc(COc2ccccc2C2CCN([C@@H]3CCC4(C3)CN(C(=O)C3(F)CC3)C4)CC2)no1` (single isomer, unassigned) [Example 7Z, (R)-(1-fluorocyclopropyl)(6-(4-(2-((5-methyl-1,2,4-oxadiazol-3-yl)methoxy)phenyl)piperidin-1-yl)-2-azaspiro[3.4]octan-2-yl)methanone or (S)-(1-fluorocyclopropyl)(6-(4-(2-((5-methyl-1,2,4-oxadiazol-3-yl)methoxy)phenyl)piperidin-1-yl)-2-azaspiro[3.4]octan-2-yl)methanone], the “M1 FDSS PA” value was determined as 77% and the EC50 is 211 nM.

With `COc1ccc(Cl)cc1C1CCN([C@H]2CCC3(C2)CN(C(=O)C2(F)CC2)C3)CC1` (single isomer, unassigned) [Example 8A, (S)-(6-(4-(5-chloro-2-methoxyphenyl)piperidin-1-yl)-2-azaspiro[3.4]octan-2-yl)(1-fluorocyclopropyl)methanone or (R)-(6-(4-(5-chloro-2-methoxyphenyl)piperidin-1-yl)-2-azaspiro[3.4]octan-2-yl)(1-fluorocyclopropyl)methanone], the “M1 FDSS PA” value is listed as 16% and a half-maximal response (EC50) required 438 nM.

As for `COc1ccc(Cl)cc1C1CCN([C@H]2CCC3(C2)CN(C(=O)C2(F)CC2)C3)CC1` (single isomer, unassigned) [Example 8B, (S)-(6-(4-(5-chloro-2-methoxyphenyl)piperidin-1-yl)-2-azaspiro[3.4]octan-2-yl)(1-fluorocyclopropyl)methanone or (R)-(6-(4-(5-chloro-2-methoxyphenyl)piperidin-1-yl)-2-azaspiro[3.4]octan-2-yl)(1-fluorocyclopropyl)methanone], the “M1 FDSS PA” value is 63% and the EC50 was found to be 30 nM.

Regarding `O=C(N1CC2(CC[C@@H](N3CCC(c4ccccc4OC(F)(F)F)CC3)C2)C1)C1(F)CC1` (single isomer, unassigned) [Example 9A, (R)-(1-fluorocyclopropyl)(6-(4-(2-(trifluoromethoxy)phenyl)piperidin-1-yl)-2-azaspiro[3.4]octan-2-yl)methanone or (S)-(1-fluorocyclopropyl)(6-(4-(2-(trifluoromethoxy)phenyl)piperidin-1-yl)-2-azaspiro[3.4]octan-2-yl)methanone], the “M1 FDSS PA” value was 43% and the EC50 was found to be 2650 nM.

For `O=C(N1CC2(CC[C@@H](N3CCC(c4ccccc4OC(F)(F)F)CC3)C2)C1)C1(F)CC1` (single isomer, unassigned) [Example 9B, (R)-(1-fluorocyclopropyl)(6-(4-(2-(trifluoromethoxy)phenyl)piperidin-1-yl)-2-azaspiro[3.4]octan-2-yl)methanone or (S)-(1-fluorocyclopropyl)(6-(4-(2-(trifluoromethoxy)phenyl)piperidin-1-yl)-2-azaspiro[3.4]octan-2-yl)methanone], the “M1 FDSS PA” value was found to be 55% and the EC50 came out at 47 nM.

On to `O=C(N1CC2(CC[C@@H](N3CCC(c4cc(F)ccc4OC4CCOCC4)CC3)C2)C1)C1(F)CC1` (single isomer, unassigned) [Example 9C, (R)-(6-(4-(5-fluoro-2-((tetrahydro-2H-pyran-4-yl)oxy)phenyl)piperidin-1-yl)-2-azaspiro[3.4]octan-2-yl)(1-fluorocyclopropyl)methanone or (S)-(6-(4-(5-fluoro-2-((tetrahydro-2H-pyran-4-yl)oxy)phenyl)piperidin-1-yl)-2-azaspiro[3.4]octan-2-yl)(1-fluorocyclopropyl)methanone], for which the “M1 FDSS PA” value is given as 27% and the EC50 amounted to 48 nM.

Turning to `O=C(N1CC2(CC[C@@H](N3CCC(c4cc(F)ccc4OC4CCOCC4)CC3)C2)C1)C1(F)CC1` (single isomer, unassigned) [Example 9D, (R)-(6-(4-(5-fluoro-2-((tetrahydro-2H-pyran-4-yl)oxy)phenyl)piperidin-1-yl)-2-azaspiro[3.4]octan-2-yl)(1-fluorocyclopropyl)methanone or (S)-(6-(4-(5-fluoro-2-((tetrahydro-2H-pyran-4-yl)oxy)phenyl)piperidin-1-yl)-2-azaspiro[3.4]octan-2-yl)(1-fluorocyclopropyl)methanone], the “M1 FDSS PA” value was 23% and the EC50 was determined as 1770 nM.
